Columns and labels:
[1] = Particle size stability of genistein/olive oil nanosuspensions stored at ambient temperature (laser diffraction and TEM); assay type: physicochemical; settings: suspended in olive oil, glass vials
Source text: After the milling steps, particle size analysis was completed for each sample. […] An amount of each nanosuspension composition was aliquoted into 3.7 cc glass vials, which were then stored at ambient temperature.
At approximately two months, samples were taken from each vial and subjected to laser diffraction particle size analysis and TEM analysis.
At the 3-month time point, a sample of each nanosuspension was taken from each vial and again subjected to laser diffraction particle size analysis and TEM analysis. Even after three months, the genistein material suspended in the olive oil remained nano-sized, with the D(0.50) at 3 months in all cases being <300 nm (see, FIGS. 3A-3C).
For each of the samples at each time point, particle size analysis conducted by laser diffraction was carried out using a LA-950 particle size analyzer from Horiba Scientific, Edison, N.J.

[2] = Particle size analysis by laser diffraction (LA-950, Horiba); assay type: physicochemical; settings: for particle size distribution (PSD) after milling: 25% (w/v) genistein in olive oil, nanomilled 60 minutes in YTZ media, initial measurement; for D(0.50) particle size: material as provided by the commercial supplier (DSM), before milling
Source text: In the context of the present description, the particle size distribution of a given material is provided in volume diameter as measured in accordance with USP 429 using a laser diffraction particle size analyzer operating in the Mie Scattering Theory diffraction mode and equipped with a suspension dispersion sample chamber (e.g., as available from Horiba Instruments, Irvine, Calif., USA). For purposes of the present description, volume diameter is given as a particle size distribution defined by one or more of D (0.10), D (0.50) and D (0.90). When referred to herein, the term D (0.10) indicates the volume frequency distribution of particles for which 10% of the sample is below the referenced size, the term D (0.50) indicates the volume frequency distribution of particles for which 50% of the sample is below the referenced size, and the term D (0.90) indicates the volume frequency distribution of particles for which 90% of the sample is below the referenced size. In addition to measurement of the particle size distribution via laser diffraction, the results from such particle size analysis and/or the morphology of the particles may be confirmed using known electron microscopy techniques.
Genivida™, a food grade genistein, and Bonistein®, a pharmaceutical grade genistein, were obtained from a commercial supplier (DSM, http://www.dsm.com/corporate/home.html) and subjected to particle size analysis. […] FIG. 1 and FIG. 2 illustrate the PSD of the Genivida™ and Bonistein® materials as supplied from DSM.
The Genivida™ and Bonistein® materials were dispersed within the olive oil to provide a suspension composition that included 25% (w/v) genistein. Several samples ≈200 ml per sample) of the 25% w/v genistein/olive oil suspension were divided and milled using a, MiniCer® nanomill from Netzsch. The samples containing Bonistein® were milled for 60 minutes in a 0.3 mm YTZ media (yttria stabilized zirconium oxide (ZrO2) beads). Samples containing Genivida™ were milled for 60 minutes in a 0.5 mm YTZ media.
A selection of the samples containing Genivida™ were subjected to a pre-milling process (referred to or labeled as “pre-grind” samples). The pre-milling process also utilized a MiniCer® nanomill from Netzsch with YTZ milling media. However, the milling media utilized in the pre-milling step was 1.25 mm YTZ media. Pre-milling was carried out for 20 minutes, with the purpose of reducing the D(0.50) particle size of the Genivida™ to below 10 μm. After pre-milling, those samples subjected to the pre-milling procedure were milled in a MiniCer® nanomill for 60 minutes in a 0.3 mm YTZ media.
After the milling steps, particle size analysis was completed for each sample. […]

| Compound | D(0.50) at 3 months ([1]; 3 months, all samples) | particle size distribution (PSD) after storage ([1]; approximately two months, laser diffraction and TEM) | particle size distribution (PSD) after milling [2] | D(0.50) particle size [2] |
| --- | --- | --- | --- | --- |
| O=c1c(-c2ccc(O)cc2)coc2cc(O)cc(O)c12 [genistein, 5,7-dihydroxy-3-(4-hydroxyphenyl)-chromen-4-one] | < 300 nm | maintained a nanoparticulate PSD |  |  |
| O=c1c(-c2ccc(O)cc2)coc2cc(O)cc(O)c12 [Genivida™] |  |  | nanoparticulate PSD | 29.5 μm |
| O=c1c(-c2ccc(O)cc2)coc2cc(O)cc(O)c12 [Bonistein®] |  |  | nanoparticulate PSD | 10.7 μm |
